Results taken from US5994365A, “Substituted diazaanthracene compounds having pharmaceutical utility” (Diazans Limited, priority 1998, dated 1999).
“And” between values parts separate entries of the source, which are not always exact repeats. Equal entries are not always repeated.

How the values were obtained:
[1] = test system: Strep pneumoniae; assay: Broth microdilution (NCCLS guidelines), MIC; type: cell-based; details: Table A
Method: (§1) The dimer product of Example 15 was obtained in powder form. A stock solution of 1280 mg/L of the dimer in dimethylsulfoxide (DMSO) was prepared and stored at room temperature in a foil-wrapped screw-capped tube (10 ml). Subsequent dilutions were prepared using cation-adjusted Mueller-Hinton broth (50 mg/L Mg). […] It was resuspended upon mixing each time an aliquot was taken from the solution.
(§2) Approximately 100 varied bacterial isolates were initially collected for screening, along with 9 ATCC organisms. Forty additional strains of Staphylococcus species were subsequently screened. All isolates were identified according to generally accepted lab protocol.
(§3) Broth microdilution was performed according to NCCLS guidelines. Microdilution panels were prepared using doubling dilutions of the dimer in ~250 μl plastic, 96-well trays. Inoculum suspension equal to a 0.5 McFarland standard were further diluted and added to the microdilution trays to achieve a final inoculum of 5×10^5 CFU/ml (5×10^4 CFU/well). Colony counts were performed to confirm the final inoculum, as well as its purity. Each strain was also tested in a growth control well containing only MHB for viability.
(§4) Microdilution trays were incubated at 35° C. in ambient air or 5% CO2 as appropriate for 16-20 hours. After incubation, the minimal inhibitory concentration (MIC) was defined as the lowest concentration of the dimer with no evidence of growth. Since 10 or more strains of most organisms were tested; a range of MICs was determined for each organism, as well as the concentration of the dimer that inhibited 50% of the strains (MIC50) and the concentration of the dimer that inhibited 90% of the strains (MIC90).
(§5) **5% lysed horse blood in MHB (cation supplemented)

[2] = test system: β strep grp A; assay: Broth microdilution (NCCLS guidelines), MIC; type: cell-based; details: Table A
Method: as §1, §2, §3, §4, §5

[3] = test system: T. glabrata ATCC 90030; assay: In vitro antifungal susceptibility assay adapted from NCCLS (MIC); type: cell-based, Torulopsis glabrata; details: RPMI-1640
Method: (§6) Compounds of the invention also display antifungal activities. […] Using C. albicans ATCC® 90028, C. neoformans ATCC® 90112 and T. glabrata ATCC® 90030, the protocol is performed as follows:
(§7) Prepare 0.0128 g DAA in 10 mL dH2 O (or other if H2 O insoluble)=1280 μg/mL (stock solution). Dilute DAA stock solution 1:10 with RPMI-1640: 0.5 mL DAA stock solution+4.5 mL RPMI-1640=128 μg/mL (DAA working solution).
(§8) Inoculate rows A-H, columns 2-12 with 100 μl of RPMI-1640 using Eppendorf repeater pipette. Inoculate rows A-C columns 1 and 2 with 100 μl of 1st antibiotic (i.e. DAA-1) using electronic pipette. Inoculate rows E-G columns 1 and 2 with 100 μl of 2nd antibiotic (i.e. DAA-2) using electronic pipette. […] Plate is now ready for fungal inocula, which involves pipetting 100 μl of the inocula into all wells in rows A-C columns 1-12 and rows E-G columns 1-12. […]
(§9) Five colonies greater than 1 mm in diameter are suspended in a spectrophotometer cuvette containing 5 mL of sterile, 0.85% saline (colonies are obtained from 24 hrs. old Candida and Torulopsis cultures, while Cryptococcus colonies are chosen from 48 hrs. old cultures). Spectrophotometer is set to read % transmission at a wavelength of 530 nm, and is standardized using two cuvettes. […] Fungal inoculum is now prepared and ready to be introduced to microplates. […]

[4] = test system: Coagulase negative Staph (Staneg); assay: Broth microdilution (NCCLS guidelines), MIC; type: cell-based, Coagulase negative staphylococci; details: for MIC50 / MIC90 / Range of MICs: 10 strains
Method: as §1, §2, §3, §4

[5] = test system: Methicillin-resistant Staph aureus (MRSA); assay: Broth microdilution (NCCLS guidelines), MIC; type: cell-based, Staphylococcus aureus
Method: as §1, §2, §3, §4

[6] = test system: C. neoformans ATCC 90112; assay: In vitro antifungal susceptibility assay adapted from NCCLS (MIC); type: cell-based, Cryptococcus neoformans; details: RPMI-1640
Method: as §6, §7, §8, §9

[7] = 10 strains, 5% lysed horse blood in MHB
[8] = Table C, 10 strains, solution 14 days old
[9] = Table E, 10 strains, fresh solution

## 10,10'-bis(3,6-dimethyl-5,10-dihydro-1,8-diazaanthracen-5-one) and 5,5'-bis(3,6-dimethyl-5,10-dihydro-1,8-diazaanthracen-10-one) [Example 15]
[1]; [7]
  MIC50: 8 µg/mL
  MIC90: 16 µg/mL
  Range of MICs: 8 to 32 mg/L
[1]; ATCC STRPNE 49619, 5% lysed horse blood in MHB
  MIC: 2.0 µg/mL
[2]; [7]
  MIC50: 32 µg/mL
  MIC90: 64 µg/mL
  Range of MICs: 32 to 64 mg/L
[2]; ATCC STRA 19615, 5% lysed horse blood in MHB
  MIC: 32 µg/mL
[3]
  MIC: 16 µg/mL
[4]; Table A
  MIC50: 0.125 µg/mL
  MIC90: 0.5 µg/mL
  Range of MICs: .0625 to 1.0 mg/L
[4]; Table C, solution 14 days old
  MIC50: 1 µg/mL
  MIC90: 2 µg/mL
[4]; Table D, Staneg 1
  MIC: 2 µg/mL
[4]; Table D, Staneg 2
  MIC: 0.25 µg/mL
[4]; Table D, Staneg 3
  MIC: 2 µg/mL
[4]; Table D, Staneg 4
  MIC: > 16 µg/mL
[4]; Table D, Staneg 5
  MIC: 1 µg/mL
[4]; Table D, Staneg 6
  MIC: 1 µg/mL
[4]; Table D, Staneg 7
  MIC: 1 µg/mL
[4]; Table D, Staneg 8
  MIC: 1 µg/mL
[4]; Table E, fresh solution
  MIC50: 0.25 µg/mL
  MIC90: 0.5 µg/mL
[4]; Table E, fresh solution, in µg/mL
  Range of MICs: 0.0625-4
[4]; Table F, Staneg 1
  MIC: 0.0625 µg/mL
[4]; Table F, Staneg 4
  MIC: 4 µg/mL
[4]; Table F, Staneg 7
  MIC: 0.25 µg/mL
[4]; Table G
  MIC50: 0.25 µg/mL
  MIC90: .5 µg/mL
  Range of MICs: 0.0625 to 4 mg/L
[5]; Table A, 12 strains
  MIC50: 0.5 µg/mL
  MIC90: 1.0 µg/mL
  Range of MICs: 0.25 to 1.0 mg/L
[5]; Table A, ATCC MRSA 33591
  MIC: 0.5 µg/mL
[5]; [8]
  MIC50: > 16 µg/mL
  MIC90: > 16 µg/mL
[5]; Table C, 10 strains, solution 14 days old, in µg/mL
  Range of MICs: > 16
[5]; Table C, ATCC MRSA 33591, solution 14 days old, listed as Dimer, in µg/mL
  MICs: 8 and 16
[5]; [9]
  MIC50: 2 µg/mL
  MIC90: 8 µg/mL
[5]; Table E, 10 strains, fresh solution, in µg/mL
  Range of MICs: 0.5-8
[5]; Table E, ATCC MRSA 33591 (×2), fresh solution, in µg/mL
  MICs: 1.0
[5]; Table F, MRSA 2
  MIC: 8 µg/mL
[5]; Table F, MRSA 4
  MIC: 2 µg/mL
[5]; Table F, MRSA 6
  MIC: 0.5 µg/mL
[5]; Table G, 10 strains
  MIC50: 2 µg/mL
  MIC90: 8 µg/mL
  Range of MICs: 0.5 to 8 mg/L
[6]
  MIC: 16 µg/mL
